Tested on: SEM cells
Assay: cell viability relative to DMSO control; higher = less cytotoxic
Conditions: 48 h
Outline: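 NOMO1 or SEM cells were plated at 500 cells/well and P12-Ichikawa cells at 1000 cells/well in 1536-well plates (5 μl), after each leukemia line had been adapted for at least four passages in each medium. Pin dosing delivered library compounds in DMSO at 11 threefold concentrations, 47 μM to 0.79 nM. CellTiter-Glo One luminescence was read after 48 h at 37°C. Viability is reported as a per-plate percentage of DMSO wells, with cell-free wells as background.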

[1] = HPLM + 10% dialyzed FBS, 0.000781 µM
[2] = HPLM + 10% dialyzed FBS, 0.00234 µM
[3] = HPLM + 10% dialyzed FBS, 0.00702 µM
[4] = HPLM + 10% dialyzed FBS, 0.0211 µM
[5] = HPLM + 10% dialyzed FBS, 0.0632 µM
[6] = HPLM + 10% dialyzed FBS, 0.19 µM
[7] = HPLM + 10% dialyzed FBS, 0.569 µM
[8] = HPLM + 10% dialyzed FBS, 1.71 µM
[9] = HPLM + 10% dialyzed FBS, 5.12 µM
[10] = HPLM + 10% dialyzed FBS, 15.4 µM
[11] = HPLM + 10% dialyzed FBS, 46.1 µM
[12] = RPMI 5 mM glucose + 10% FBS, 0.000781 µM
[13] = RPMI 5 mM glucose + 10% FBS, 0.00234 µM
[14] = RPMI 5 mM glucose + 10% FBS, 0.00702 µM
[15] = RPMI 5 mM glucose + 10% FBS, 0.0211 µM
[16] = RPMI 5 mM glucose + 10% FBS, 0.0632 µM
[17] = RPMI 5 mM glucose + 10% FBS, 0.19 µM
[18] = RPMI 5 mM glucose + 10% FBS, 0.569 µM
[19] = RPMI 5 mM glucose + 10% FBS, 1.71 µM
[20] = RPMI 5 mM glucose + 10% FBS, 5.12 µM
[21] = RPMI 5 mM glucose + 10% FBS, 15.4 µM
[22] = RPMI 5 mM glucose + 10% FBS, 46.1 µM
[23] = RPMI 5 mM glucose + 10% dialyzed FBS, 0.000781 µM
[24] = RPMI 5 mM glucose + 10% dialyzed FBS, 0.00234 µM
[25] = RPMI 5 mM glucose + 10% dialyzed FBS, 0.00702 µM
[26] = RPMI 5 mM glucose + 10% dialyzed FBS, 0.0211 µM
[27] = RPMI 5 mM glucose + 10% dialyzed FBS, 0.0632 µM
[28] = RPMI 5 mM glucose + 10% dialyzed FBS, 0.19 µM
[29] = RPMI 5 mM glucose + 10% dialyzed FBS, 0.569 µM
[30] = RPMI 5 mM glucose + 10% dialyzed FBS, 1.71 µM
[31] = RPMI 5 mM glucose + 10% dialyzed FBS, 5.12 µM
[32] = RPMI 5 mM glucose + 10% dialyzed FBS, 15.4 µM
[33] = RPMI 5 mM glucose + 10% dialyzed FBS, 46.1 µM

SMILES	cell viability [1] [%]	cell viability [2] [%]	cell viability [3] [%]	cell viability [4] [%]	cell viability [5] [%]	cell viability [6] [%]	cell viability [7] [%]	cell viability [8] [%]	cell viability [9] [%]	cell viability [10] [%]	cell viability [11] [%]	cell viability [12] [%]	cell viability [13] [%]	cell viability [14] [%]	cell viability [15] [%]	cell viability [16] [%]	cell viability [17] [%]	cell viability [18] [%]	cell viability [19] [%]	cell viability [20] [%]	cell viability [21] [%]	cell viability [22] [%]	cell viability [23] [%]	cell viability [24] [%]	cell viability [25] [%]	cell viability [26] [%]	cell viability [27] [%]	cell viability [28] [%]	cell viability [29] [%]	cell viability [30] [%]	cell viability [31] [%]	cell viability [32] [%]	cell viability [33] [%]
O=C(NCCCNc1nc(Nc2cccc(NC(=O)N3CCCC3)c2)ncc1I)c1cccs1	55.6	91.1	102	75.8	46.5	60.8	50.4	27.2	32.9	76.7	70.6	74	124	124	111	68.7	85.1	33.1	13.4	37.5	77.7	68.9	46.5	96.9	87.4	78.9	36.8	64.9	42.6	23.9	28.4	79.6	62.6
CC[C@H](NC(C)C)[C@H](O)c1ccc(O)c2[nH]c(=O)ccc12	75.6	90.5	101	92.8	89.3	100	94.6	98.1	98.5	98.8	68.4	89.2	112	96.9	107	109	98.1	108	100	104	106	79.3	100	87.5	98	109	119	109	125	105	113	98.9	85.5
CCCNCC(O)COc1ccccc1C(=O)CCc1ccccc1 (centres undefined)	86.5	86.5	117	93.3	98.7	54.2	105	112	117	108	99.6	98.8	95.1	98.1	104	107	60.4	125	109	124	116	97.2	101	85.1	109	90.5	102	43.6	118	104	116	115	110
CC(C[N+](C)(C)C)OC(N)=O (centres undefined)	107	114	83.5	98.8	96.1	106	104	116	106	110	97.6	105	105	87	128	117	132	120	124	113	120	109	116	123	88.7	114	120	107	125	108	112	116	108
C[C@H](NC(=O)Cc1cc(F)cc(F)c1)C(=O)N[C@@H]1C(=O)N(C)c2ccccc2-c2ccccc21	84.8	106	103	77.7	102	102	110	106	35.4	3.3	2.09	94.2	101	88.5	80.6	107	103	98.1	16	4.52	3.08	1.53	107	103	100	79.4	112	109	113	105	5.44	3.49	2.01
O=C(O)[C@@H](c1ccc(OCc2ccc3ccccc3n2)cc1)C1CCCC1	116	124	122	114	123	45.5	125	114	43.4	113	95.6												109	151	120	127	148	52	129	124	19.4	114	83.1
FC1=CC=C(CN2\C=C/C=C(/C(=O)N[C@@H](COC3=CC4=C(NC(=O)N4)C=C3)C5=CC=CC=C5)C2=O)C=C1F	79.5	85.6	69.3	94.2	93.8	98.8	93.3	77.5	61	54.6	41.8	93.6	108	85.9	119	109	108	93.8	90	57.1	59.4	38.5	79.8	91.2	78.5	93.4	84.5	93.1	81	76.9	57.4	49.8	44.3
C[C@H]1C[C@H]2[C@@H]3CCC4=CC(=O)C=C[C@]4(C)[C@H]3C(=O)C[C@]2(C)[C@@]1(O)C(=O)CO	77	81.5	77.8	88.9	70.6	99.8	96.5	92.7	88.7	81.9	9.17	82.3	81.3	90.3	78.8	72.5	87	92.5	91.7	71.3	58.5	7.21	93.2	85.2	83.4	91.1	77.5	101	93.6	97.6	85.4	74.4	7.99
CN[C@H]1[C@H](O[C@@H]2[C@H](O[C@@H]3[C@@H](O)[C@@H](O)[C@@H](NC(=N)N)[C@@H](O)[C@H]3NC(=N)N)O[C@H](C)[C@@]2(O)C=O)O[C@@H](CO)[C@@H](O)[C@H]1O	93.2	89.9	79.7	80.2	79.9	82.2	83.7	57	83.3	82.1	78.6	95.1	116	119	114	114	110	104	44.8	103	85.6	99.3	109	103	118	114	117	114	109	80.4	103	111	101
O=C1CCC[C@@H]2[C@H]3CCC[N+]4([O-])CCC[C@@H](CN12)[C@@H]34 (some centres undefined)	61.8	68.2	84.1	86.2	96.2	94	89.4	92.1	71.9	27.1	78.6	84.7	87.4	93.9	94.7	89.1	101	96.6	99.5	71.5	18.8	86.8	89.7	68.5	82.2	97.9	85.4	96.6	102	81.4	91.1	24	88.7
N#CC1(c2ccc(NC(=O)c3cccnc3NCc3ccncc3)cc2)CCCC1	120	123	123	118	116	102	124	113	91	80.7	81.4																						
CC(=O)OCC(=O)[C@@]12OC(C)(C)O[C@@H]1C[C@H]3[C@@H]4C[C@H](F)C/5=C/C(=O)/C=C\[C@]5(C)[C@@]4(F)[C@@H](O)C[C@]23C	67.2	84.1	74.8	70.2	79.9	78.5	21.4	20.6	74.8	89.7	67.8	103	104	85.4	94.7	106	99.4	24.7	21.1	78.5	78.2	76.3	92.5	102	87.9	85.2	90	68.9	15.7	10.2	106	95.4	75.4
Cc1ccc(NC(=O)Nc2cc(C(F)(F)F)ccc2F)cc1Nc1ccc2c(c1)NC(=O)/C2=C\c1ccc[nH]1	108	131	121	115	118	127	131	120	111	87.6	16.2												120	116	122	111	138	139	124	124	102	76.2	4.96
COc1cc(Nc2ncc(F)c(Nc3ccc4c(n3)N(COP(=O)(O)O)C(=O)C(C)(C)O4)n2)cc(OC)c1OC	77	88.7	95.8	91.2	65.9	55.2	35	33.5	49.9	37.1	35.5	98.2	108	102	107	77.9	41.1	26.5	34.7	42.8	35.1	34.4	80.8	96.6	83.5	82.1	60.2	35.7	25.1	23.7	35.1	22	24.6
OCCNC1CCCc2c1[nH]c1ccc(-c3ccccc3)cc21 (centres undefined)	81.1	86.7	91.5	84.7	106	101	90.2	100	85.4	67.3	19.5	99.6	87.8	101	109	108	105	88.7	91.6	74	56.1	5.82	85.6	87.9	89.7	96.1	88.7	104	99	94.2	94.7	68.2	22.9
NCCCC(O)(P(=O)(O)O)P(=O)(O)O.O.O.O.[Na+]	141	106	118	120	122	118	125	110	71	56.6	15.4	124	125	109	130	112	122	99.3	101	22.5	16.6	6.56	125	111	133	118	122	113	110	116	37.5	27.9	7.61

Reference: the supplement of paper PMC11451515
